# What was measured:
# [1] = system: rat; settings: Sub-acute repeat dose toxicity; fischer; Oral; Gavage/Intubation; dose end: 28 day; group: systemic; systemic / in life observation / mortality / mortality + systemic / organ weight / kidney / absolute + systemic / organ weight / kidney / …
# [2] = system: rat; settings: Subchronic oral toxicity in rodents, fischer, Gavage/Intubation, dose end: 13 week, group: systemic
# [3] = system: rat; settings: Acute inhalation toxicity, fischer, Nose-Only, dose end: 28 day, group: systemic, systemic / pathology microscopic / nose / hyperplasia + systemic / pathology microscopic / nose / lesion(s) (nos) + systemic / pathology …
# [4] = system: rat; settings: Sub-acute repeat dose toxicity, fischer, Oral, Gavage/Intubation, dose end: 16 day, group: systemic
# [5] = system: mouse; settings: Subchronic oral toxicity in rodents, b6c3f1, Gavage/Intubation, dose end: 13 week, group: systemic
# [6] = system: rat; settings: Carcinogenicity; fischer; Oral; Gavage/Intubation; dose end: 103 week; group: systemic; systemic / pathology microscopic / liver / necrosis
# [7] = system: mouse; settings: Sub-acute repeat dose toxicity; b6c3f1; Oral; Gavage/Intubation; dose end: 16 day; group: systemic; systemic / in life observation / mortality / mortality
# [8] = system: mouse; settings: Carcinogenicity, b6c3f1, Oral, Gavage/Intubation, dose end: 103 week, group: systemic
# [9] = system: rat; settings: Subchronic oral toxicity in rodents, wistar, Feed, dose end: 3 month, group: systemic, systemic / clinical chemistry / albumin / albumin + systemic / clinical chemistry / calcium / calcium + systemic / clinical chemistry / …
# [10] = system: dog; settings: Chronic toxicity, beagle, Oral, Feed, dose end: 52 week, group: systemic
# [11] = system: rat; settings: Combined chronic toxicity/carcinogenicity; wistar; Oral; Feed; dose end: 24 month; group: systemic; systemic / in life observation / body weight / body weight + systemic / in life observation / body weight / body weight gain + systemic / in…
# [12] = system: rat; settings: Chronic toxicity, wistar, Oral, Feed, dose end: 728 day, group: systemic
# [13] = system: rat; settings: Developmental neurotoxicity range-finding study; wistar; Oral; Gavage/Intubation; dose end: 21 PND; group: cannot be grouped; developmental / offspring survival late / [other] / [other] + systemic / in life observation / clinical signs / tremors
# [14] = system: dog; settings: Chronic toxicity; beagle; Oral; Feed; dose end: 52 week; group: systemic; systemic / pathology microscopic / liver / hemosiderosis + systemic / pathology microscopic / spleen / hemosiderosis
# [15] = system: rat; settings: Combined chronic toxicity/carcinogenicity, sprague dawley, Oral, Feed, dose end: 104 week, group: systemic
# [16] = system: mouse; settings: Combined chronic toxicity/carcinogenicity; other; Oral; Feed; dose end: 104 week; group: systemic; systemic / in life observation / body weight / body weight
# [17] = system: rabbit; settings: Prenatal developmental toxicity study, himalayan, Oral, Gavage/Intubation, dose end: 19 GD
# [18] = system: rat; settings: Multigenerational reproductive toxicity study, wistar, Oral, Feed, dose end: 2 generation
# [19] = system: rat; settings: Subchronic oral toxicity in rodents, fischer, Feed, dose end: 13 week, group: systemic
# [20] = systemic / in life observation / mortality / mortality + systemic / organ weight / kidney / absolute + systemic / organ weight / kidney / …
# [21] = systemic / pathology microscopic / liver / vacuolization cytoplasmic
# [22] = systemic / in life observation / clinical signs / labored respiration + systemic / in life observation / clinical signs / reduced activity…
# [23] = systemic / organ weight / liver / relative to body weight
# [24] = systemic / pathology microscopic / kidney / carcinoma + systemic / pathology microscopic / stomach / hyperplasia
# [25] = systemic / in life observation / clinical signs / salivation
# [26] = systemic / in life observation / clinical signs / salivation + systemic / in life observation / clinical signs / [other] + systemic / in …
# [27] = systemic / in life observation / body weight / body weight + systemic / in life observation / body weight / body weight gain + systemic / …
# [28] = systemic / in life observation / food consumption / food consumption
# [29] = systemic / in life observation / food consumption / food consumption + systemic / in life observation / body weight / body weight
# [30] = group: developmental, developmental / developmental malformation / bone / [other] + developmental / developmental malformation / bone / full supernumerary + …
# [31] = group: maternal, systemic / in life observation / body weight / body weight gain + systemic / in life observation / food consumption / food consumption
# [32] = group: offspring, developmental / developmental landmark / eye opening / eye opening
# [33] = group: offspring, systemic / in life observation / body weight / offspring (pup) weight + systemic / in life observation / body weight / offspring (pup) …
# [34] = group: parental, systemic / in life observation / body weight / body weight + systemic / in life observation / body weight / body weight gain + systemic / …
# [35] = systemic / organ weight / kidney / nos + systemic / organ weight / liver / nos + systemic / pathology microscopic / liver / hypertrophy
# [36] = systemic / organ weight / kidney / nos + systemic / organ weight / liver / nos + systemic / pathology microscopic / liver / hypertrophy + …
smiles,measurement,setting,value
O=Cc1ccco1 [Furfural],LEL,[1],192 mg/kg/day
same,LOAEL,[1],192 mg/kg/day
same,NEL,[1],96 mg/kg/day
same,NOAEL,[1],96 mg/kg/day
same,LOAEL,[2]; [20],> 180 mg/kg/day
same,NOAEL,[2]; [20],≥ 180 mg/kg/day
same,LEL,[2]; [21],11 mg/kg/day
same,NEL,[2]; [21],< 11 mg/kg/day
same,LEL,[3],6 mg/kg/day
same,LOAEL,[3],> 368 mg/kg/day
same,NEL,[3],< 6 mg/kg/day
same,NOAEL,[3],≥ 368 mg/kg/day
same,LOAEL,[4]; [22],> 240 mg/kg/day
same,NEL,[4]; [22],60 mg/kg/day
same,NOAEL,[4]; [22],≥ 240 mg/kg/day
same,LEL,[4]; systemic / in life observation / clinical signs / reduced activity,120 mg/kg/day
same,LEL,[5]; [23],75 mg/kg/day
same,NEL,[5]; [23],< 75 mg/kg/day
same,LOAEL,[5]; systemic / pathology microscopic / liver / inflammation + systemic / pathology microscopic / liver / necrosis,150 mg/kg/day
same,NOAEL,[5]; systemic / pathology microscopic / liver / inflammation + systemic / pathology microscopic / liver / necrosis + systemic / in life …,75 mg/kg/day
same,LEL,[6],30 mg/kg/day
same,LOAEL,[6],30 mg/kg/day
same,NEL,[6],< 30 mg/kg/day
same,NOAEL,[6],< 30 mg/kg/day
same,LEL,[7],400 mg/kg/day
same,LOAEL,[7],> 400 mg/kg/day
same,NEL,[7],200 mg/kg/day
same,NOAEL,[7],≥ 400 mg/kg/day
same,LEL,[8]; [24],50 mg/kg/day
same,NEL,[8]; [24],< 50 mg/kg/day
same,LOAEL,[8]; systemic / pathology microscopic / liver / inflammation + systemic / pathology microscopic / liver / pigmentation,100 mg/kg/day
same,NOAEL,[8]; systemic / pathology microscopic / liver / inflammation + systemic / pathology microscopic / liver / pigmentation + systemic / pathology …,50 mg/kg/day
C[N+]1(C)CCCCC1.[Cl-] [Mepiquat chloride],LEL,[9],826 mg/kg/day
same,LOAEL,[9],826 mg/kg/day
same,NEL,[9],< 826 mg/kg/day
same,NOAEL,[9],< 826 mg/kg/day
same,LOAEL,[10]; [25],170 mg/kg/day
same,NOAEL,[10]; [25],< 170 mg/kg/day
same,LEL,[10]; [26],170 mg/kg/day
same,NEL,[10]; [26],< 170 mg/kg/day
same,LEL,[11],269 mg/kg/day
same,LOAEL,[11],269 mg/kg/day
same,NEL,[11],105 mg/kg/day
same,NOAEL,[11],105 mg/kg/day
same,LOAEL,[12]; [27],268 mg/kg/day
same,NEL,[12]; [27],13 mg/kg/day
same,NOAEL,[12]; [27],106 mg/kg/day
same,LEL,[12]; [28],106 mg/kg/day
same,LEL,[13],75 mg/kg/day
same,LOAEL,[13],75 mg/kg/day
same,NEL,[13],< 75 mg/kg/day
same,NOAEL,[13],< 75 mg/kg/day
same,LEL,[14],58.4 mg/kg/day
same,LOAEL,[14],> 58.4 mg/kg/day
same,NEL,[14],19.9 mg/kg/day
same,NOAEL,[14],≥ 58.4 mg/kg/day
same,LEL,[15]; [28],186 mg/kg/day
same,LOAEL,[15]; [28],186 mg/kg/day
same,NEL,[15]; [29],62.4 mg/kg/day
same,NOAEL,[15]; [29],62.4 mg/kg/day
same,LEL,[16],169 mg/kg/day
same,LOAEL,[16],> 514 mg/kg/day
same,NEL,[16],48.9 mg/kg/day
same,NOAEL,[16],≥ 514 mg/kg/day
same,LEL,[17]; [30],100 mg/kg/day
same,LOAEL,[17]; [30],100 mg/kg/day
same,NEL,[17]; [30],50 mg/kg/day
same,NOAEL,[17]; [30],50 mg/kg/day
same,LEL,[17]; [31],100 mg/kg/day
same,LOAEL,[17]; [31],100 mg/kg/day
same,NEL,[17]; [31],50 mg/kg/day
same,NOAEL,[17]; [31],50 mg/kg/day
same,LEL,[18]; [32],48.6 mg/kg/day
same,NEL,[18]; [32],< 48.6 mg/kg/day
same,LOAEL,[18]; [33],574 mg/kg/day
same,NOAEL,[18]; [33],147 mg/kg/day
same,LOAEL,"[18]; group: parental, systemic / in life observation / body weight / body weight + systemic / in life observation / body weight / body weight gain",499 mg/kg/day
same,LEL,[18]; [34],499 mg/kg/day
same,NEL,[18]; [34],153 mg/kg/day
same,NOAEL,[18]; [34],153 mg/kg/day
CC(O)CN(CC(C)O)CC(C)O.Nc1c(Cl)c(Cl)nc(C(=O)O)c1Cl (centres undefined) [Picloram triisopropanolamine salt],LEL,[19]; [35],550 mg/kg/day
same,LOAEL,[19]; [35],550 mg/kg/day
same,NEL,[19]; [36],90 mg/kg/day
same,NOAEL,[19]; [36],90 mg/kg/day

# Source: EPA's ToxRefDB 2
